Test results taken from patent US20200352912A1, “ANTIMICROBIAL COMPOSITIONS AND METHODS OF USING THE SAME” (The Board Of Supervisors Of Louisiana State University And …, priority 2018, published 2020).
“Also recorded” adds a separate entry of the source.

Columns and labels:
[1] = test system: S. aureus in polymicrobial biofilms; conditions: 1,600 μg/ml; cited from earlier work
[2] = test system: C. albicans and S. aureus; conditions: mouse, in vivo; cited from earlier work
S. aureus NRS383 = assay: planktonic antimicrobial assay (OD600 growth); format: cell-based, Staphylococcus aureus; conditions: 100 μg/ml (inhibitor-specific concentrations b175), OD600 up to 24 h
Protocol: Effect of COX enzyme inhibitors or PGE2 EP receptor antagonists on microbial growth. The antimicrobial activity of selective COX enzyme inhibitor or PGE2 EP receptor antagonist on the growth of C. albicans DAY185 (A), S. aureus NRS383 (B) and MRSA and MSSA clinical isolates (C). Growth of C. albicans and S. aureus was monitored for up to 24 h in medium alone or supplemented with DMSO or EP receptor antagonists or COX enzyme inhibitor at physiologically relevant concentrations. Data shown are representative of three independent experiments.
C. albicans and S. aureus were grown as described above. […] Cells were grown with shaking as described above, and 1 ml aliquots were removed each hour in duplicate and optical density at 600 nm measured (OD600) by spectrophotometer (Biomate 3S, Thermo Scientific).

[3] = test system: C. albicans and S. aureus; assay: mouse C. albicans-S. aureus polymicrobial intra-abdominal infection; format: in vivo, mice
Protocol: Effect of inhibition of EP4 receptor signaling on survival. Mice received either vehicle or EP4 receptor antagonist at a dose of 10 mg/kg by i.p. injection as indicated in Materials and Methods. Mortality was assessed using Kaplan Meier test (***P<0.001; n=20/group) compared to control groups. Data shown are representative of three replicate experiments.
The mouse peritonitis/intra-abdominal model was performed as previously described (8). In brief, for MRSA peritonitis, mice were injected intraperitoneally (i.p.) with 4×10^6 CFU or 5×10^6 CFU or 2×10^7 CFU of S. aureus in 0.2 ml of PBS containing 3% hog gastric mucin type III (Sigma Aldrich). Mice injected i.p. with 0.2 ml of mucin/PBS served as a negative infection control. For the intra-abdominal infection with C. albicans and S. aureus, mice were injected i.p. with 7×10^6 CFU of C. albicans and 8×10^7 CFU of S. aureus (8.7×10^7 CFU total) in 0.2 ml of PBS. After inoculation, mice were observed over 10 days for signs of morbidity (hunched posture, inactivity, lethargy, and ruffled fur) and mortality. […] In the MRSA peritonitis experiments, mice were sacrificed at 24 or 48 h post-inoculation to assess microbial burden. Peritoneal cavities were lavaged by injection of 2 ml of sterile PBS followed by gentle massaging of the peritoneal cavity. Peritoneal lavage fluid then was removed using a pipette inserted into a small incision in the abdominal cavity. Spleens were removed, weighed, and mechanically homogenized prior to CFU analysis. Microbial burdens in the peritoneal lavage fluid and spleen were enumerated as described above.
Each inhibitor was prepared fresh as a concentrated stock (20-25 mg/ml) in DMSO and diluted to a working concentration of […] in sterile PBS (final DMSO concentration, 2.3%). A sham treatment containing only 2.3% DMSO in PBS was also prepared. For the MRSA peritonitis study, the EP4 receptor antagonist was administered 2 h after S. aureus inoculation and once daily thereafter until day 4 post inoculation. For the IAI co-infection study, COX inhibitor or vehicle control was administered 4 h prior to and 4 and 8 h after inoculation with C. albicans and S. aureus while the EP receptor antagonists were administered daily starting 1 day prior to and 5 days after infection. All other procedures were performed as described above. Control groups received the vehicle at the same dose interval.
In a final set of experiments, we evaluated the ability of L-161, 982 to reduce lethality in co-infected mice. Mice co-inoculated with the standard 7×106 C. albicans CFU and 8×107 S. aureus CFU (8.7×10^7 CFU total) were treated with L-161, 982 (10 mg/kg) 2 h post infection and once daily afterwards until day 5. […]

CN[C@H](CC(C)C)C(=O)N[C@H]1C(=O)N[C@@H](CC(N)=O)C(=O)N[C@H]2C(=O)N[C@H]3C(=O)N[C@H](C(=O)N[C@H](C(=O)O)c4cc(O)cc(O)c4-c4cc3ccc4O)[C@H](O)c3ccc(c(Cl)c3)Oc3cc2cc(c3O[C@@H]2O[C@H](CO)[C@@H](O)[C@H](O)[C@H]2O[C@H]2C[C@](C)(N)[C@H](O)[C@H](C)O2)Oc2ccc(cc2Cl)[C@H]1O [vancomycin]
viability of S. aureus in polymicrobial biofilms [1]: no effect on viability

COc1ccc2c(c1)c(CC(=O)O)c(C)n2C(=O)c1ccc(Cl)cc1 [indomethacin]
mortality of co-infected mice [2]: prevented mortality

CC(C(=O)Nc1cc(C#N)ccc1CCCC(=O)O)c1ccc(F)c2ccccc12 (centres unmarked) [ONO AE3 208]
growth of S. aureus (S. aureus NRS383): no antimicrobial effect
effect on survival ([3]; 10 mg/kg i.p.): no effect; also recorded: did not enhance survival
antimicrobial effect on S. aureus in vivo ([3]; mouse, in vivo): no antimicrobial effect
